# What was measured:
# [1] = target: Induced myeloid leukemia cell differentiation protein Mcl-1 (Homo sapiens, UniProt Q07820); assay: Inhibition of Mcl-1 (172-327) (unknown origin) using BIOTIN-AHXGQVGRQLAIIGDDINR-amide peptide by TR-FRET based BAK peptide displacement assay
# NCI-H929 = assay: Cytotoxicity against human NCI-H929 cells assessed as cell viability measured after 72 hrs incubation by CellTiterGlo assay; type: functional, cell-based; conditions: NCI-H929, 72 h
# [2] = Kinetic solubility of the compound in pH 7.4 buffer measured after 24 hrs by LC-UV analysis; type: physicochemical; conditions: read-out: Kinetic_solubility
# Chain of Induced myeloid leukemia cell differentiation protein Mcl-1 (Q07820 whole entry): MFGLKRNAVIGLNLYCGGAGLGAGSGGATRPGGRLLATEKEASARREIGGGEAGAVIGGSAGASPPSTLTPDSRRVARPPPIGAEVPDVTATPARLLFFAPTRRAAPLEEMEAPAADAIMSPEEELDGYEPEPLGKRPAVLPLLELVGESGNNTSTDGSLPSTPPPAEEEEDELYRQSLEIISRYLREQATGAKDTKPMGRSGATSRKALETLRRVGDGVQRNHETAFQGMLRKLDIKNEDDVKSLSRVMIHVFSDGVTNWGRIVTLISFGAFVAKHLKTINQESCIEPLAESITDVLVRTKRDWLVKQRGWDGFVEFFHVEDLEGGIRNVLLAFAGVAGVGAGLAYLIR
IC50 [1],solubility kinetic at 24 h [2],SMILES,IC50 (NCI-H929)
59 nM,–,CCOc1cccc2c1OC(C)(C)C(=O)N[C@H]1CC[C@H](CC1)CC(=O)N[C@@H](c1ccccc1)C(=O)N[C@H](Cc1ccccc1)C(=O)NCCc1ccc(cc1)OC2,–
98 nM,–,CCOc1cccc2c1OCC(=O)N[C@H]1CC[C@H](CC1)CC(=O)N[C@@H](CC(C)C)C(=O)N[C@H](CC1CCCCC1)C(=O)N[C@H](C(=O)NC)Cc1ccc(cc1)OC2,–
39000 nM,–,CCOc1cc(-c2ccc(C(F)(F)F)cc2)cc2c1OCC(=O)N[C@H]1CC[C@H](CC1)CC(=O)N[C@@H](c1ccccc1)C(=O)N[C@H](Cc1ccccc1)C(=O)NCCc1ccc(cc1)OC2,7100 nM
50000 nM,–,CCOc1cc(-c2ccc(F)c(OC)c2)cc2c1OCC(=O)N[C@H]1CC[C@H](CC1)CC(=O)N[C@@H](c1ccccc1)C(=O)N[C@H](Cc1ccccc1)C(=O)NCCc1ccc(cc1)OC2,2100 nM
137 nM,–,CCOc1cccc2c1OC(C)(C)C(=O)N[C@H]1CC[C@H](CC1)CC(=O)N[C@@H](C(C)C)C(=O)N[C@H](Cc1ccccc1)C(=O)NCCc1ccc(cc1)OC2,–
174 nM,–,COc1cccc2c1OCC(=O)N[C@H]1CC[C@H](CC1)CC(=O)N[C@@H](c1ccccc1)C(=O)N[C@H](Cc1ccccc1)C(=O)NCCc1ccc(cc1)OC2,–
> 30000 nM,–,CCOc1cccc2c1OCC(=O)N[C@H]1CC[C@H](CC1)CC(=O)N(c1ccccc1)CC(=O)N(Cc1ccccc1)CC(=O)NCCc1ccc(cc1)OC2,–
1370 nM,37 µM,CCOc1cccc2c1OCC(=O)N[C@H]1CC[C@H](CC1)CC(=O)N[C@@H](Cc1ccc(O)cc1)C(=O)N[C@H](Cc1ccccc1)C(=O)NCCc1ccc(cc1)OC2,–
> 30000 nM,–,CCOc1cccc2c1OCC(=O)N[C@H]1CC[C@H](CC1)CC(=O)N(c1ccccc1)CC(=O)N[C@H](Cc1ccccc1)C(=O)NCCc1ccc(cc1)OC2,–
78 nM,–,O=C1C[C@H]2CC[C@H](CC2)NC(=O)COc2c(Cl)cccc2COc2ccc(cc2)CCNC(=O)[C@@H](Cc2ccccc2)NC(=O)[C@H](c2ccccc2)N1,–
382 nM,–,CCOc1cccc2c1OCC(=O)N[C@H]1CC[C@H](CC1)CC(=O)N[C@@H](c1ccccc1)C(=O)N(C)[C@H](Cc1ccccc1)C(=O)NCCc1ccc(cc1)OC2,–
1430 nM,4 µM,CCOc1cccc2c1OCC(=O)N[C@H]1CC[C@H](CC1)CC(=O)N[C@@](C)(c1ccccc1)C(=O)N[C@H](Cc1ccccc1)C(=O)NCCc1ccc(cc1)OC2,–
7350 nM,69 µM,CCOc1cccc2c1OCC(=O)N[C@H]1CC[C@H](CC1)CC(=O)N[C@@H](Cc1c[nH]cn1)C(=O)N[C@H](Cc1ccccc1)C(=O)NCCc1ccc(cc1)OC2,–
101 nM,–,CCOc1cccc2c1OCC(=O)N[C@H]1CC[C@H](CC1)CC(=O)N[C@@H](CC1CCCCC1)C(=O)N[C@H](Cc1ccccc1)C(=O)N[C@H](C(=O)NC)Cc1ccc(cc1)OC2,–
54000 nM,–,CCOc1cc(-c2ccc(F)c(C)c2)cc2c1OCC(=O)N[C@H]1CC[C@H](CC1)CC(=O)N[C@@H](c1ccccc1)C(=O)N[C@H](Cc1ccccc1)C(=O)NCCc1ccc(cc1)OC2,2900 nM
14000 nM,–,CCOc1cc(C#Cc2cc(C)cc(C)c2)cc2c1OCC(=O)N[C@H]1CC[C@H](CC1)CC(=O)N[C@@H](c1ccccc1)C(=O)N[C@H](Cc1ccccc1)C(=O)NCCc1ccc(cc1)OC2,3400 nM
15000 nM,–,CCOc1cc(-c2cc(C)cc(C)c2)cc2c1OCC(=O)N[C@H]1CC[C@H](CC1)CC(=O)N[C@@H](c1ccccc1)C(=O)N[C@H](Cc1ccccc1)C(=O)NCCc1ccc(cc1)OC2,> 10000 nM
1440 nM,1 µM,CCOc1cccc2c1OCC(=O)N[C@H]1CC[C@H](CC1)CC(=O)N[C@@H](Cc1c[nH]c3ccccc13)C(=O)N[C@H](Cc1ccccc1)C(=O)NCCc1ccc(cc1)OC2,–

IC50 [1],solubility kinetic at 24 h [2],SMILES,IC50 (NCI-H929)
271 nM,–,CCOc1cccc2c1OCC(=O)N[C@H]1CC[C@H](CC1)CC(=O)N[C@@H](CC1CCCCC1)C(=O)N[C@H](CC1CCCCC1)C(=O)N[C@H](C(=O)NC)Cc1ccc(cc1)OC2,–
80 nM,5 µM,CCOc1cccc2c1OCC(=O)N[C@H]1CC[C@H](CC1)CC(=O)N[C@@H](CCS(C)(=O)=O)C(=O)N[C@H](Cc1ccccc1)C(=O)NCCc1ccc(cc1)OC2,–
678 nM,25 µM,CCOc1cccc2c1OCC(=O)N[C@H]1CC[C@H](CC1)CC(=O)N[C@@H]([C@@H](C)OC)C(=O)N[C@H](Cc1ccccc1)C(=O)NCCc1ccc(cc1)OC2,–
179 nM,–,CCOc1cccc2c1OCC(=O)N[C@H]1CC[C@H](CC1)CC(=O)N[C@@H](C1CCCCC1)C(=O)N[C@H](CC1CCCCC1)C(=O)N[C@H](C(=O)NC)Cc1ccc(cc1)OC2,–
7100 nM,–,CCOc1cccc2c1OCC(=O)N[C@H]1CC[C@H](CC1)CC(=O)N[C@H](c1ccccc1)C(=O)N[C@H](Cc1ccccc1)C(=O)NCCc1ccc(cc1)OC2,–
234 nM,–,CCOc1cccc2c1OCC(=O)N[C@H]1CC[C@H](CC1)CC(=O)N[C@@H](c1ccccc1)C(=O)N(Cc1ccccc1)CC(=O)NCCc1ccc(cc1)OC2,–
64 nM,–,CCOc1cccc2c1OCC(=O)N[C@H]1CC[C@H](CC1)CC(=O)N[C@@H](c1ccccc1)C(=O)N[C@H](CC1CCCCC1)C(=O)N[C@H](C(=O)NC)Cc1ccc(cc1)OC2,–
5600 nM,–,CCOc1cc(C#Cc2cc(F)cc(F)c2)cc2c1OCC(=O)N[C@H]1CC[C@H](CC1)CC(=O)N[C@@H](c1ccccc1)C(=O)N[C@H](Cc1ccccc1)C(=O)NCCc1ccc(cc1)OC2,3300 nM
43 nM,6 µM,CCOc1cccc2c1OCC(=O)N[C@H]1CC[C@H](CC1)CC(=O)N[C@@H](c1cccnc1)C(=O)N[C@H](Cc1ccccc1)C(=O)NCCc1ccc(cc1)OC2,–
253 nM,–,CC(C)C[C@@H]1NC(=O)C[C@H]2CC[C@H](CC2)NC(=O)COc2c(Cl)cccc2COc2ccc(cc2)CCNC(=O)[C@@H](Cc2ccccc2)NC1=O,–
> 30000 nM,–,CCOc1cccc2c1OCC(=O)N[C@H]1CC[C@H](CC1)CC(=O)N(C)[C@@H](c1ccccc1)C(=O)N[C@H](Cc1ccccc1)C(=O)NCCc1ccc(cc1)OC2,–
90 nM,–,CCOc1cccc2c1OCC(=O)N[C@H]1CC[C@H](CC1)CC(=O)N[C@@H](CC(C)C)C(=O)N[C@H](Cc1ccccc1)C(=O)NCCc1ccc(cc1)OC2,–
124 nM,–,CCOc1cccc2c1OC(C)(C)C(=O)N[C@H]1CC[C@H](CC1)CC(=O)N[C@@H](c1ccccc1)C(=O)N[C@H](CC1CCCCC1)C(=O)NCCc1ccc(cc1)OC2,–
227 nM,–,CCOc1cccc2c1OCC(=O)N[C@H]1CC[C@H](CC1)CC(=O)N[C@@H](c1ccccc1)C(=O)N[C@H](CC1CCCCC1)C(=O)NCCc1ccc(cc1)OC2,–
212 nM,9 µM,CCOc1cccc2c1OCC(=O)N[C@H]1CC[C@H](CC1)CC(=O)N[C@@H](CCSC)C(=O)N[C@H](Cc1ccccc1)C(=O)NCCc1ccc(cc1)OC2,–
298 nM,–,CCOc1cccc2c1OCC(=O)N[C@H]1CC[C@H](CC1)CC(=O)N[C@@H](C(C)C)C(=O)N[C@H](Cc1ccccc1)C(=O)N[C@H](C(=O)NC)Cc1ccc(cc1)OC2,–
34 nM,3 µM,CCOc1cccc2c1OCC(=O)N[C@H]1CC[C@H](CC1)CC(=O)N[C@@H](c1ccnc(OC)c1)C(=O)N[C@H](Cc1ccccc1)C(=O)NCCc1ccc(cc1)OC2,–
21800 nM,–,CCOc1cccc2c1OCC(=O)N[C@H]1CC[C@H](CC1)CC(=O)N[C@@H](c1ccccc1)C(=O)N[C@H](Cc1ccccc1)C(=O)N(C)CCc1ccc(cc1)OC2 (mixture of isomers),–

# Reference: ChEMBL document CHEMBL5528043, “Development of Potent Mcl-1 Inhibitors: Structural Investigations on Macrocycles Originating from a DNA-Encoded Chemical Library Screen” (J Med Chem, 2024)
